Measured values reported in the supplement of paper PMC11061612.

Legend:
Assay in all cases: combination Emax (second highest fraction inhibited in the dose matrix, 72 h); higher = more inhibition; extreme values may be limits of the assay
[1] = system: A253 (Head and Neck Carcinoma)
Method in brief: (§1)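 After 24 hours at 37°C and 5% CO2 in 1536-well plates, cells in DMEM/F12 or RPMI plus 10% FBS received two-drug dose matrices for 72 hours. Viability came from CellTiter-Glo 2.0 luminescence and was scaled as inhibition, anchored at 0 by vehicle wells and at 1 by blank wells. Combination Emax is taken as the second-highest inhibition in the matrix, and Bliss excess as the observed combination effect less EA + EB − EA·EB, with EA and EB the single-agent effects.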

[2] = system: CGTH-W-1 (Thyroid Gland Carcinoma)
Method in brief: as §1

[3] = system: UACC-812 (Breast Carcinoma)
Method in brief: as §1

COLO-792 (Melanoma) = system: COLO-792 (Melanoma)
Method in brief: as §1

[4] = system: NCI-H2087 (Lung Adenocarcinoma)
Method in brief: as §1

[5] = system: JIMT-1 (Breast Carcinoma)
Method in brief: as §1

[6] = system: CESS (Acute Myeloid Leukemia)
Method in brief: as §1

[7] = system: MHH-ES-1 (Ewing's Sarcoma)
Method in brief: as §1

[8] = system: Jurkat (T-Lymphoblastic Leukemia)
Method in brief: as §1

[9] = system: DU-4475 (Breast Carcinoma)
Method in brief: as §1

[10] = system: HCC1428 (Breast Carcinoma)
Method in brief: as §1

RH-41 (Rhabdomyosarcoma) = system: RH-41 (Rhabdomyosarcoma)
Method in brief: as §1

[11] = system: EPLC-272H (Other Solid Carcinomas)
Method in brief: as §1

EB2 (Burkitt's Lymphoma) = system: EB2 (Burkitt's Lymphoma)
Method in brief: as §1

[12] = system: NCI-H441 (Lung Adenocarcinoma)
Method in brief: as §1

[13] = system: GA-10 (Burkitt's Lymphoma)
Method in brief: as §1

[14] = system: GCT (Other Solid Carcinomas)
Method in brief: as §1

[15] = system: NCI-H1651 (Lung Adenocarcinoma)
Method in brief: as §1

[16] = system: A2780 (Ovarian Carcinoma)
Method in brief: as §1

IM-9 (Non-Cancerous) = system: IM-9 (Non-Cancerous)
Method in brief: as §1

Compound | combination Emax [1] | combination Emax [2] | combination Emax [3] | combination Emax (COLO-792 (Melanoma)) | combination Emax [4] | combination Emax [5] | combination Emax [6] | combination Emax [7] | combination Emax [8] | combination Emax [9] | combination Emax [10] | combination Emax (RH-41 (Rhabdomyosarcoma)) | combination Emax [11] | combination Emax (EB2 (Burkitt's Lymphoma)) | combination Emax [12] | combination Emax [13] | combination Emax [14] | combination Emax [15] | combination Emax [16] | combination Emax (IM-9 (Non-Cancerous))
C[C@@H]1COCCN1c1cc(C2([S@](C)(=N)=O)CC2)nc(-c2ccnc3[nH]ccc23)n1 [AZD6738] + O=C(c1cc(Cc2n[nH]c(=O)c3ccccc23)ccc1F)N1CCN(C(=O)C2CC2)CC1 [Olaparib] (first compound max 10 µM, 7x7, partner max 10 µM) | 0.806 | 0.386 | 0.351 | 0.278 | 0.534 | 0.598 | 0.864 | 0.868 | 0.965 | 0.975 | 0.261 | 0.808 | 0.824 | 0.813 | 0.476 | 0.942 | 0.392 | 0.729 | 0.832 | 0.986
Cn1cnc2c(F)c(Nc3ccc(Br)cc3Cl)c(C(=O)NOCCO)cc21 [Selumetinib] + CCN(CCO)CCCOc1ccc2c(Nc3cc(CC(=O)Nc4cccc(F)c4)[nH]n3)ncnc2c1 [AZD2811] (first compound max 10 µM, 7x7, partner max 1 µM) | 0.348 | 0.125 | 0.166 | 0.51 | 0.445 | 0.153 | 0.423 | 0.609 | 0.203 | 1 | 0.297 | 0.309 | 0.634 | 0.182 | 0.304 | 0.7 | 0.384 | 0.209 | 0.702 | 0.995
COc1nnc2ccc(N3CCC(c4ccc(OCCN5CCN(C)C(=O)[C@H]5C)cc4)CC3)nn12 [AZD5153] + Cc1c2c(nn1C)CSCc1cc(n(C)n1)CSc1cc(c3ccccc3c1)OCCCc1c(C(=O)O)n(C)c3c-2c(Cl)ccc13 [AZD5991] (first compound max 1 µM, 7x7, partner max 1 µM) | 0.816 | 0.428 | 0.8 | 1 | 0.453 | 0.611 | 0.76 | 0.911 | 1 | 0.974 | 0.984 | 1 | 0.959 | 0.608 | 0.384 | 0.967 | 0.6 | 0.515 | 0.977 | 0.886
CC1(C)CCC(CN2CCN(c3ccc(C(=O)NS(=O)(=O)c4ccc(NCC5CCOCC5)c([N+](=O)[O-])c4)c(Oc4cnc5[nH]ccc5c4)c3)CC2)=C(c2ccc(Cl)cc2)C1 [Venetoclax] + CCN(CCO)CCCOc1ccc2c(Nc3cc(CC(=O)Nc4cccc(F)c4)[nH]n3)ncnc2c1 [AZD2811] (first compound max 1 µM, 7x7, partner max 1 µM) | 0.268 | 0.272 | 0.186 | 0.446 | 0.176 | 0.284 | 0.615 | 0.657 | 0.2 | 0.404 | 0.451 | 0.418 | 0.371 | 0.677 | 0.365 | 0.598 | 0.273 | 0.233 | 0.472 | 0.976
CC1(C)CCC(CN2CCN(c3ccc(C(=O)NS(=O)(=O)c4ccc(NCC5CCOCC5)c([N+](=O)[O-])c4)c(Oc4cnc5[nH]ccc5c4)c3)CC2)=C(c2ccc(Cl)cc2)C1 [Venetoclax] + C[C@@H](Nc1cc(F)cc(F)c1)c1cc(C(=O)N(C)C)cc2c(=O)cc(N3CCOCC3)oc12 [AZD8186] (first compound max 1 µM, 7x7, partner max 3 µM) | 0.103 | 0.116 | 0.0679 | 0.328 | 0.08 | 0.087 | 0.587 | 0.191 | 0.271 | 0.262 | 0.147 | 0.491 | 0.419 | 0.746 | 0.184 | 0.617 | 0.32 | 0.128 | 0.472 | 0.573
C=CCn1c(=O)c2cnc(Nc3ccc(N4CCN(C)CC4)cc3)nc2n1-c1cccc(C(C)(C)O)n1 [AZD1775] + O=C(c1cc(Cc2n[nH]c(=O)c3ccccc23)ccc1F)N1CCN(C(=O)C2CC2)CC1 [Olaparib] (first compound max 1 µM, partner max 10 µM) | 0.35 | 0.193 | 0.14 | 0.284 | 0.493 | 0.558 | 0.916 | 0.886 | 0.842 | 0.933 | 0.375 | 0.953 | 0.761 | 0.848 | 0.472 | 0.981 | 0.501 | 0.736 | 0.76 | 0.986
